{"source": "patent US8497380B2", "about": "“Substituted acetophenones useful as PDE4 inhibitors” (Leo Pharma A/S, priority 2006, dated 2013)", "data": [{"tested_on": "Human peripheral blood mononuclear cells (PBMC)", "test": "TNFalfa-Release", "type": "cell-based", "details": "inhibition of TNF-a secretion, PBMC pre-incubated 30 minutes, stimulated 18 hours with lipopolysaccharide", "experimental": "Human peripheral blood mononuclear cells (PBMC) are Isolated from buffy coats. The blood is mixed with saline at a ratio of 1:1, and the PBMC is isolated by the use of Lymphoprep Tubes™ (Nycomed, Norway). The PBMC is suspended in RPMI1640 with 2% foetal calf serum (FCS), pen/strep and 2 mM L-glutamine at a concentration of 5×105 c/ml. The cells are pre-incubated for 30 minutes with the test compounds in 96 well tissue culture plates and stimulated for 18 hours with lipopolysaccharide 1 mg/ml (Sigma). The level of TNF-a is measured in the culture supernatant by enzyme immuno assays using primary and secondary biotinylated antibodies from R&D systems. Results are expressed as pIC50 values calculated from inhibition curves using as positive controls the secretion in LPS stimulated wells and as negative controls the secretion in unstimulated cells.", "units": {"IC50": "nM"}, "values": [{"smiles": "COc1ccc(C(=O)Cc2c(Cl)cncc2Cl)c(OCc2ccc(C)c(F)c2F)c1OC", "note": "[Compound 171, 2-(3,5-Dichloro-pyridin-4-yl)-1-(2-(2,3-difluoro-4-methyl-benzyloxy)-3,4-dimethoxy-phenyl)-ethanone]", "IC50": "< 1000"}, {"smiles": "COc1ccc(C(=O)Cc2c(Cl)cncc2Cl)c(OCc2ccccc2Cl)c1OC", "note": "[Compound 176, 1-[2-(2-Chloro-benzyloxy)-3,4-dimethoxy-phenyl]-2-(3,5-dichloro-pyridin-4-yl)-ethanone]", "IC50": "< 1000"}, {"smiles": "COc1cccc(COc2c(C(=O)Cc3c(Cl)cncc3Cl)ccc(OC)c2OC)c1", "note": "[Compound 177, 2-(3,5-Dichloro-pyridin-4-yl)-1-[3,4-dimethoxy-2-(3-methoxy-benzyloxy)-phenyl]-ethanone]", "IC50": "< 1000"}, {"smiles": "CCOC(=O)CCCCOc1c(C(=O)Cc2c(Cl)cncc2Cl)ccc(OC)c1OC", "note": "[Compound 182, 5-{6-[2-(3,5-Dichloro-pyridin-4-yl)-acetyl]-2,3-dimethoxy-phenoxy}-pentanoic acid ethyl ester]", "IC50": "< 1000"}, {"smiles": "COc1ccc(C(=O)Cc2c(Cl)cncc2Cl)c(OCCCOCc2ccccc2)c1OC", "note": "[Compound 183, 1-[2-(3-Benzyloxy-propoxy)-3,4-dimethoxy-phenyl]-2-(3,5-dichloro-pyridin-4-yl)-ethanone]", "IC50": "< 1000"}, {"smiles": "COc1ccc(C(=O)Cc2c(Cl)cncc2Cl)c(OCC(N)=O)c1OC", "note": "[Compound 184, 2-{6-[2-(3,5-Dichloro-pyridin-4-yl)-acetyl]-2,3-dimethoxy-phenoxy}-acetamide]", "IC50": "< 1000"}, {"smiles": "COc1ccc(C(=O)Cc2c(Cl)cncc2Cl)c(OCCN2C(=O)c3ccccc3C2=O)c1OC", "note": "[Compound 185, 2-(2-{6-[2-(3,5-Dichloro-pyridin-4-yl)-acetyl]-2,3-dimethoxy-phenoxy}-ethyl)-isoindole-1,3-dione]", "IC50": "< 1000"}, {"smiles": "COc1ccc(C(=O)Cc2c(Cl)cncc2Cl)c(OCCCN2C(=O)c3ccccc3C2=O)c1OC", "note": "[Compound 186, 2-(3-{6-[2-(3,5-Dichloro-pyridin-4-yl)-acetyl]-2,3-dimethoxy-phenoxy}-propyl)-isoindole-1,3-dione]", "IC50": "< 1000"}, {"smiles": "CCOc1c(OC)ccc(C(=O)Cc2c(Cl)cncc2Cl)c1OC", "note": "[Compound 188, 2-(3,5-Dichloro-pyridin-4-yl)-1-(3-ethoxy-2,4-dimethoxy-phenyl)-ethanone]", "IC50": "< 1000"}, {"smiles": "COc1ccc(C(=O)Cc2c(Cl)cncc2Cl)c(OC)c1OCC1CC1", "note": "[Compound 189, 1-(3-Cyclopropylmethoxy-2,4-dimethoxy-phenyl)-2-(3,5-dichloro-pyridin-4-yl)-ethanone]", "IC50": "< 1000"}, {"smiles": "C=CCCOc1c(OC)ccc(C(=O)Cc2c(Cl)cncc2Cl)c1OCC=C", "note": "[Compound 190, 1-(2-Allyloxy-3-but-3-enyloxy-4-methoxy-phenyl)-2-(3,5-dichloro-pyridin-4-yl)-ethanone]", "IC50": "< 1000"}, {"smiles": "C=CCOc1c(OC)ccc(C(=O)Cc2c(Cl)cncc2Cl)c1OC", "note": "[Compound 193, 1-(3-Allyloxy-2,4-dimethoxy-phenyl)-2-(3,5-dichloro-pyridin-4-yl)-ethanone]", "IC50": "< 1000"}, {"smiles": "COc1ccc(C(=O)Cc2c(Cl)cncc2Cl)c(OCC(=O)N2CCCC2)c1OC", "note": "[Compound 202, 2-(3,5-Dichloro-pyridin-4-yl)-1-[3,4-dimethoxy-2-(2-oxo-2-pyrrolidin-1-yl-ethoxy)-phenyl]-ethanone]", "IC50": "< 1000"}, {"smiles": "COc1ccc(C(=O)Cc2c(Cl)cncc2Cl)c(OCC(=O)NCc2ccccc2)c1OC", "note": "[Compound 203, N-Benzyl-2-{6-[2-(3,5-dichloro-pyridin-4-yl)-acetyl]-2,3-dimethoxy-phenoxy}-acetamide]", "IC50": "< 1000"}, {"smiles": "COc1ccc(C(=O)Cc2c(Cl)cncc2Cl)c(OCC(=O)N2CCOCC2)c1OC", "note": "[Compound 204, 2-(3,5-Dichloro-pyridin-4-yl)-1-[3,4-dimethoxy-2-(2-morpholin-4-yl-2-oxo-ethoxy)-phenyl]-ethanone]", "IC50": "< 1000"}, {"smiles": "COc1ccc(C(=O)Cc2c(Cl)cncc2Cl)c(OCC(=O)Nc2ccccc2)c1OC", "note": "[Compound 205, 2-{6-[2-(3,5-Dichloro-pyridin-4-yl)-acetyl]-2,3-dimethoxy-phenoxy}-N-phenyl-acetamide]", "IC50": "< 1000"}, {"smiles": "COc1ccc(C(=O)Cc2c(Cl)cncc2Cl)c(OCC(=O)N(C)c2ccccc2)c1OC", "note": "[Compound 206, 2-{6-[2-(3,5-Dichloro-pyridin-4-yl)-acetyl]-2,3-dimethoxy-phenoxy}-N-methyl-N-phenyl-acetamide]", "IC50": "< 1000"}, {"smiles": "CCCNC(=O)COc1c(C(=O)Cc2c(Cl)cncc2Cl)ccc(OC)c1OC", "note": "[Compound 208, 2-{6-[2-(3,5-Dichloro-pyridin-4-yl)-acetyl]-2,3-dimethoxy-phenoxy}-N-propyl-acetamide]", "IC50": "< 1000"}, {"smiles": "COc1ccc(C(=O)Cc2c(Cl)cncc2Cl)c(OCC(=O)NC(C)C)c1OC", "note": "[Compound 209, 2-{6-[2-(3,5-Dichloro-pyridin-4-yl)-acetyl]-2,3-dimethoxy-phenoxy}-N-isopropyl-acetamide]", "IC50": "< 1000"}, {"smiles": "CCCCNC(=O)COc1c(C(=O)Cc2c(Cl)cncc2Cl)ccc(OC)c1OC", "note": "[Compound 210, N-Butyl-2-{6-[2-(3,5-dichloro-pyridin-4-yl)-acetyl]-2,3-dimethoxy-phenoxy}-acetamide]", "IC50": "< 1000"}, {"smiles": "COc1ccc(C(=O)Cc2c(Cl)cncc2Cl)c(OCC(=O)NC2CCCC2)c1OC", "note": "[Compound 211, N-Cyclopentyl-2-{6-[2-(3,5-dichloro-pyridin-4-yl)-acetyl]-2,3-dimethoxy-phenoxy}-acetamide]", "IC50": "< 1000"}, {"smiles": "COc1ccc(C(=O)Cc2c(Cl)cncc2Cl)c(OCC(=O)NCCC(C)C)c1OC", "note": "[Compound 212, 2-{6-[2-(3,5-Dichloro-pyridin-4-yl)-acetyl]-2,3-dimethoxy-phenoxy}-N-(3-methyl-butyl)-acetamide]", "IC50": "< 1000"}, {"smiles": "COc1ccc(CNC(=O)COc2c(C(=O)Cc3c(Cl)cncc3Cl)ccc(OC)c2OC)cc1", "note": "[Compound 213, 2-{6-[2-(3,5-Dichloro-pyridin-4-yl)-acetyl]-2,3-dimethoxy-phenoxy}-N-(4-methoxy-benzyl)-acetamide]", "IC50": "< 1000"}, {"smiles": "COc1ccc(C(=O)Cc2c(Cl)cncc2Cl)c(OCC(=O)NCC(C)(C)C)c1OC", "note": "[Compound 214]", "IC50": "< 1000"}, {"smiles": "COc1ccc(C(=O)Cc2c(Cl)cncc2Cl)c(OCC(=O)NC2CCCCC2)c1OC", "note": "[Compound 215, N-Cyclohexyl-2-{6-[2-(3,5-dichloro-pyridin-4-yl)-acetyl]-2,3-dimethoxy-phenoxy}-acetamide]", "IC50": "< 1000"}, {"smiles": "COc1cccc(CNC(=O)COc2c(C(=O)Cc3c(Cl)cncc3Cl)ccc(OC)c2OC)c1", "note": "[Compound 216, 2-{6-[2-(3,5-Dichloro-pyridin-4-yl)-acetyl]-2,3-dimethoxy-phenoxy}-N-(3-methoxy-benzyl)-acetamide]", "IC50": "< 1000"}, {"smiles": "COc1ccc(C(=O)Cc2c(Cl)cncc2Cl)c(OCC(=O)NC2CCCCCC2)c1OC", "note": "[Compound 217, N-Cycloheptyl-2-{6-(2-(3,5-dichloro-pyridin-4-yl)-acetyl)-2,3-dimethoxy-phenoxy}-acetamide]", "IC50": "< 1000"}, {"smiles": "COc1ccccc1CNC(=O)COc1c(C(=O)Cc2c(Cl)cncc2Cl)ccc(OC)c1OC", "note": "[Compound 218, 2-{6-[2-(3,5-Dichloro-pyridin-4-yl)-acetyl]-2,3-dimethoxy-phenoxy}-N-(2-methoxy-benzyl)-acetamide]", "IC50": "< 1000"}, {"smiles": "COc1ccc(C(=O)Cc2c(Cl)cncc2Cl)c(OCC(=O)NCC2CCCCC2)c1OC", "note": "[Compound 219, N-Cyclohexylmethyl-2-{6-[2-(3,5-dichloro-pyridin-4-yl)-acetyl]-2,3-dimethoxy-phenoxy}-acetamide]", "IC50": "< 1000"}, {"smiles": "COc1ccc(C(=O)Cc2c(Cl)cncc2Cl)c(OCC(=O)NCCO)c1OC", "note": "[Compound 220, 2-{6-[2-(3,5-Dichloro-pyridin-4-yl)-acetyl]-2,3-dimethoxy-phenoxy}-N-(2-hydroxy-ethyl)-acetamide]", "IC50": "< 1000"}, {"smiles": "COc1ccc(C(=O)Cc2c(Cl)cncc2Cl)c(OCC(=O)N[C@H](C)c2ccccc2)c1OC", "note": "[Compound 221, (R)-2-{6-[2-(3,5-Dichloro-pyridin-4-yl)-acetyl]-2,3-dimethoxy-phenoxy}-N-(1-phenyl-ethyl)-acetamide]", "IC50": "< 1000"}, {"smiles": "COc1ccc(C(=O)Cc2c(Cl)cncc2Cl)c(OCC(=O)NCCCO)c1OC", "note": "[Compound 222, 2-{6-[2-(3,5-Dichloro-pyridin-4-yl)-acetyl]-2,3-dimethoxy-phenoxy}-N-(3-hydroxy-propyl)-acetamide]", "IC50": "< 1000"}, {"smiles": "COCCNC(=O)COc1c(C(=O)Cc2c(Cl)cncc2Cl)ccc(OC)c1OC", "note": "[Compound 223, 2-{6-(2-(3,5-Dichloro-pyridin-4-yl)-acetyl)-2,3-dimethoxy-phenoxy}-N-(2-methoxy-ethyl)-acetamide]", "IC50": "< 1000"}, {"smiles": "COc1ccc(C(=O)Cc2c(Cl)cncc2Cl)c(OCC(=O)NCCN(C)C)c1OC", "note": "[Compound 224, 2-{6-[2-(3,5-Dichloro-pyridin-4-yl)-acetyl]-2,3-dimethoxy-phenoxy}-N-(2-dimethylamino-ethyl)-acetamide]", "IC50": "< 1000"}, {"smiles": "COc1ccc(C(=O)Cc2c(Cl)cncc2Cl)c(OCC(=O)NCCCN(C)C)c1OC", "note": "[Compound 225, 2-{6-[2-(3,5-Dichloro-pyridin-4-yl)-acetyl]-2,3-dimethoxy-phenoxy}-N-(3-dimethylamino-propyl)-acetamide]", "IC50": "< 1000"}, {"smiles": "COc1ccc(C(=O)Cc2c(Cl)cncc2Cl)c(OCC(=O)N[C@@H](C)c2ccccc2)c1OC", "note": "[Compound 226, (S)-2-(6-[2-(3,5-Dichloro-pyridin-4-yl)-acetyl]-2,3-dimethoxy-phenoxy)-N-(1-phenyl-ethyl)-acetamide]", "IC50": "< 1000"}, {"smiles": "COc1ccc(C(=O)Cc2c(Cl)cncc2Cl)c(OCC(=O)NCCCOC(C)C)c1OC", "note": "[Compound 227, 2-{6-[2-(3,5-Dichloro-pyridin-4-yl)-acetyl]-2,3-dimethoxy-phenoxy}-N-(3-isopropoxy-propyl)-acetamide]", "IC50": "< 1000"}]}]}
